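At the GI50, growth is halved. TGI is the concentration that stops growth completely.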
Key:
Assay in all cases: growth of human tumour cells (NCI), 384-well format
UO-31 renal = system: UO-31 renal
SF-268 CNS = system: SF-268 CNS
A549 NSCLC = system: A549 NSCLC
SR leukemia = system: SR leukemia
MDA-MB-468 breast = system: MDA-MB-468 breast
786-0 renal = system: 786-0 renal
ACHN renal = system: ACHN renal
SF-295 CNS = system: SF-295 CNS
MCF7 breast = system: MCF7 breast
A498 renal = system: A498 renal
MDA-MB-435 melanoma = system: MDA-MB-435 melanoma
MALME-3M melanoma = system: MALME-3M melanoma
CCRF-CEM leukemia = system: CCRF-CEM leukemia
HCC-2998 colon = system: HCC-2998 colon
SF-539 CNS = system: SF-539 CNS
NCI-H460 NSCLC = system: NCI-H460 NSCLC
BT-549 breast = system: BT-549 breast
SK-MEL-28 melanoma = system: SK-MEL-28 melanoma
SK-OV-3 ovarian = system: SK-OV-3 ovarian
MDA-MB-231 breast = system: MDA-MB-231 breast
LOX IMVI melanoma = system: LOX IMVI melanoma
U251 glioblastoma = system: U251 glioblastoma
RPMI-8226 leukemia = system: RPMI-8226 leukemia
T-47D breast = system: T-47D breast
NCI-H23 lung = system: NCI-H23 lung
HCT-15 colon = system: HCT-15 colon
NCI/ADR-RES ovarian = system: NCI/ADR-RES ovarian
SNB-19 CNS = system: SNB-19 CNS
OVCAR-5 ovarian = system: OVCAR-5 ovarian
KM12 colon = system: KM12 colon
SK-MEL-5 melanoma = system: SK-MEL-5 melanoma
COLO 205 colon = system: COLO 205 colon
HT29 colon = system: HT29 colon
M14 melanoma = system: M14 melanoma
PC-3 prostate = system: PC-3 prostate
HOP-62 NSCLC = system: HOP-62 NSCLC
UACC-62 melanoma = system: UACC-62 melanoma
NCI-H322M lung = system: NCI-H322M lung
IGROV1 ovarian = system: IGROV1 ovarian
NCI-H522 lung = system: NCI-H522 lung
OVCAR-3 ovarian = system: OVCAR-3 ovarian
HS 578T breast = system: HS 578T breast
MOLT-4 leukemia = system: MOLT-4 leukemia
SN12C renal = system: SN12C renal
HL-60(TB) leukemia = system: HL-60(TB) leukemia
NCI-H226 lung = system: NCI-H226 lung
SW-620 colon = system: SW-620 colon
RXF 393 renal = system: RXF 393 renal
K-562 leukemia = system: K-562 leukemia
OVCAR-8 ovarian = system: OVCAR-8 ovarian
TK-10 renal = system: TK-10 renal
HOP-92 NSCLC = system: HOP-92 NSCLC
DU-145 prostate = system: DU-145 prostate
SNB-75 CNS = system: SNB-75 CNS
CAKI-1 renal = system: CAKI-1 renal
OVCAR-4 ovarian = system: OVCAR-4 ovarian
UACC-257 melanoma = system: UACC-257 melanoma
EKVX NSCLC = system: EKVX NSCLC

Cc1cc2c(F)c(Oc3ncnn4cc(OC[C@@H](C)OC(=O)[C@H](C)N)c(C)c34)ccc2[nH]1
GI50 (UO-31 renal): 6.25 µM
GI50 (SF-268 CNS): 3.4 µM
TGI (SF-268 CNS): 16.8 µM
GI50 (A549 NSCLC): 4.99 µM
TGI (A549 NSCLC): 17.7 µM
GI50 (SR leukemia): 0.0548 µM
TGI (SR leukemia): 0.241 µM
GI50 (MDA-MB-468 breast): 2.16 µM
TGI (MDA-MB-468 breast): 5.55 µM
GI50 ([…]-0 renal): 3.54 µM
GI50 (ACHN renal): 2.97 µM
GI50 (SF-295 CNS): 3.24 µM
TGI (SF-295 CNS): 12.8 µM
GI50 (MCF7 breast): 3.45 µM
TGI (MCF7 breast): 16.7 µM
GI50 (A498 renal): 5.04 µM
GI50 (MDA-MB-435 melanoma): 7.77 µM
GI50 (MALME-3M melanoma): 2.07 µM
TGI (MALME-3M melanoma): 12.5 µM
GI50 (CCRF-CEM leukemia): 1.84 µM
TGI (CCRF-CEM leukemia): 6.14 µM
GI50 (HCC-2998 colon): 3.59 µM
GI50 (SF-539 CNS): 2.25 µM
TGI (SF-539 CNS): 10.9 µM
GI50 (NCI-H460 NSCLC): 0.643 µM
TGI (NCI-H460 NSCLC): 4.37 µM
GI50 (BT-549 breast): 3.65 µM
TGI (BT-549 breast): 15.3 µM
GI50 (SK-MEL-28 melanoma): 3.29 µM
TGI (SK-MEL-28 melanoma): 17.5 µM
GI50 (SK-OV-3 ovarian): 5.13 µM
GI50 (MDA-MB-231 breast): 1.82 µM
TGI (MDA-MB-231 breast): 18.2 µM
GI50 (LOX IMVI melanoma): 1.43 µM
TGI (LOX IMVI melanoma): 3.81 µM
GI50 (U251 glioblastoma): 3.67 µM
GI50 (RPMI-8226 leukemia): 0.467 µM
TGI (RPMI-8226 leukemia): 1.94 µM
GI50 (T-47D breast): 3.34 µM
GI50 (NCI-H23 lung): 10.1 µM
TGI (NCI-H23 lung): 21.7 µM
GI50 (HCT-15 colon): 0.914 µM
TGI (HCT-15 colon): 3.46 µM
GI50 (NCI/ADR-RES ovarian): 3.52 µM
GI50 (SNB-19 CNS): 5.13 µM
GI50 (OVCAR-5 ovarian): 8.29 µM
GI50 (KM12 colon): 3.17 µM
TGI (KM12 colon): 13.8 µM
GI50 (SK-MEL-5 melanoma): 0.984 µM
GI50 (COLO 205 colon): 0.847 µM
TGI (COLO 205 colon): 12.7 µM
GI50 (HT29 colon): 2.77 µM
TGI (HT29 colon): 12 µM
GI50 (M14 melanoma): 4.9 µM
TGI (M14 melanoma): 17.4 µM
GI50 (PC-3 prostate): 3.17 µM
GI50 (HOP-62 NSCLC): 6.64 µM
TGI (HOP-62 NSCLC): 20.3 µM
GI50 (UACC-62 melanoma): 3.13 µM
TGI (UACC-62 melanoma): 17.5 µM
GI50 (NCI-H322M lung): 7.3 µM
TGI (NCI-H322M lung): 19.7 µM
GI50 (IGROV1 ovarian): 4.71 µM
GI50 (NCI-H522 lung): 4.57 µM
GI50 (OVCAR-3 ovarian): 6.03 µM
GI50 (HS 578T breast): 6.21 µM
TGI (HS 578T breast): 17.7 µM
GI50 (MOLT-4 leukemia): 0.272 µM
TGI (MOLT-4 leukemia): 0.612 µM
GI50 (SN12C renal): 4.53 µM
GI50 (HL-60(TB) leukemia): 1.04 µM
TGI (HL-60(TB) leukemia): 3.2 µM
GI50 (NCI-H226 lung): 4.33 µM
TGI (NCI-H226 lung): 18 µM
GI50 (SW-620 colon): 4.96 µM
TGI (SW-620 colon): 17.7 µM
GI50 (RXF 393 renal): 3.75 µM
TGI (RXF 393 renal): 14.2 µM
GI50 (K-562 leukemia): 1.04 µM
TGI (K-562 leukemia): 3.18 µM
GI50 (OVCAR-8 ovarian): 4.41 µM
TGI (OVCAR-8 ovarian): 17.2 µM
GI50 (TK-10 renal): 2.27 µM
GI50 (HOP-92 NSCLC): 4.17 µM
TGI (HOP-92 NSCLC): 17.3 µM
GI50 (DU-145 prostate): 3.74 µM
GI50 (SNB-75 CNS): 4.41 µM
TGI (SNB-75 CNS): 17.1 µM
GI50 (CAKI-1 renal): 3.65 µM
TGI (CAKI-1 renal): 16.4 µM
GI50 (OVCAR-4 ovarian): 7.98 µM

CNC(=O)c1cccc(-c2ccc3c(N4CCOC[C@@H]4C)nc(N4CCOC[C@@H]4C)nc3n2)c1
GI50 (UO-31 renal): 0.505 µM
TGI (UO-31 renal): 7.86 µM
GI50 (SF-268 CNS): 0.433 µM
GI50 (A549 NSCLC): 0.152 µM
GI50 (SR leukemia): 0.0536 µM
TGI (SR leukemia): 0.239 µM
GI50 (MDA-MB-468 breast): 0.0332 µM
TGI (MDA-MB-468 breast): 0.277 µM
GI50 ([…]-0 renal): 0.348 µM
GI50 (ACHN renal): 0.162 µM
GI50 (SF-295 CNS): 0.112 µM
TGI (SF-295 CNS): 0.545 µM
GI50 (MCF7 breast): 0.0597 µM
GI50 (A498 renal): 0.0329 µM
TGI (A498 renal): 0.374 µM
GI50 (MDA-MB-435 melanoma): 0.28 µM
TGI (MDA-MB-435 melanoma): 1.61 µM
GI50 (MALME-3M melanoma): 0.019 µM
TGI (MALME-3M melanoma): 0.161 µM
GI50 (CCRF-CEM leukemia): 0.197 µM
GI50 (HCC-2998 colon): 0.662 µM
GI50 (SF-539 CNS): 0.305 µM
GI50 (NCI-H460 NSCLC): 0.0379 µM
GI50 (BT-549 breast): 0.213 µM
TGI (BT-549 breast): 1.36 µM
GI50 (SK-MEL-28 melanoma): 0.131 µM
TGI (SK-MEL-28 melanoma): 1.17 µM
GI50 (SK-OV-3 ovarian): 0.116 µM
TGI (SK-OV-3 ovarian): 1.58 µM
GI50 (MDA-MB-231 breast): 0.207 µM
GI50 (LOX IMVI melanoma): 0.298 µM
TGI (LOX IMVI melanoma): 1.78 µM
GI50 (U251 glioblastoma): 0.637 µM
GI50 (RPMI-8226 leukemia): 0.0128 µM
TGI (RPMI-8226 leukemia): 0.0401 µM
GI50 (T-47D breast): 0.0204 µM
TGI (T-47D breast): 0.116 µM
GI50 (NCI-H23 lung): 0.314 µM
GI50 (HCT-15 colon): 0.187 µM
GI50 (NCI/ADR-RES ovarian): 0.534 µM
GI50 (SNB-19 CNS): 2.33 µM
GI50 (OVCAR-5 ovarian): 0.139 µM
GI50 (KM12 colon): 0.156 µM
GI50 (SK-MEL-5 melanoma): 0.062 µM
TGI (SK-MEL-5 melanoma): 0.295 µM
GI50 (COLO 205 colon): 0.154 µM
GI50 (HT29 colon): 0.546 µM
GI50 (M14 melanoma): 0.143 µM
GI50 (PC-3 prostate): 0.0719 µM
TGI (PC-3 prostate): 8.3 µM
GI50 (HOP-62 NSCLC): 0.269 µM
GI50 (UACC-62 melanoma): 0.152 µM
TGI (UACC-62 melanoma): 0.727 µM
GI50 (NCI-H322M lung): 0.13 µM
GI50 (IGROV1 ovarian): 0.0425 µM
TGI (IGROV1 ovarian): 0.284 µM
GI50 (NCI-H522 lung): 0.0686 µM
GI50 (OVCAR-3 ovarian): 0.257 µM
GI50 (HS 578T breast): 0.105 µM
TGI (HS 578T breast): 0.381 µM
GI50 (MOLT-4 leukemia): 0.0987 µM
TGI (MOLT-4 leukemia): 1.04 µM
GI50 (SN12C renal): 0.142 µM
TGI (SN12C renal): 8.26 µM
GI50 (HL-60(TB) leukemia): 1.36 µM
GI50 (NCI-H226 lung): 0.182 µM
TGI (NCI-H226 lung): 0.857 µM
GI50 (SW-620 colon): 0.635 µM
GI50 (RXF 393 renal): 0.33 µM
GI50 (K-562 leukemia): 0.48 µM
GI50 (OVCAR-8 ovarian): 0.37 µM
GI50 (TK-10 renal): 0.26 µM
TGI (TK-10 renal): 3.83 µM
GI50 (UACC-257 melanoma): 0.218 µM
TGI (UACC-257 melanoma): 0.958 µM
GI50 (EKVX NSCLC): 0.161 µM
TGI (EKVX NSCLC): 1.87 µM
GI50 (HOP-92 NSCLC): 0.0972 µM
TGI (HOP-92 NSCLC): 1.66 µM
GI50 (DU-145 prostate): 0.341 µM
GI50 (SNB-75 CNS): 0.121 µM
GI50 (CAKI-1 renal): 0.214 µM
TGI (CAKI-1 renal): 5.52 µM
GI50 (OVCAR-4 ovarian): 0.111 µM
TGI (OVCAR-4 ovarian): 0.595 µM

Source: PubChem BioAssay (NCI)
